Experimental data: patent US9598418B2, “Substituted phthalazin-1 (2H)-one derivatives as selective inhibitors of poly (ADP-ribose) polymerase-1” (CADILA HEALTHCARE LIMITED, priority 2012, dated 2017)
Structures can show the parent of a compound that is named as a salt.

Biological target: T1, PARP-1 (Homo sapiens, UniProt P09874)
T1 construct: purchased Trevigen
Assay: PARP-1 inhibitory activity, HT universal colorimetric PARP assay kit (Trevigen)
Assay type: biochemical
Details: estimation as calculated from a 4 point dose response curve; read-out: PARP-1 activity in vitro IC50
Experimental: The compounds were tested for PARP-1 inhibitory activity by using HT universal colorimetric PARP assay kit obtained from Trevigen, following manufacturer's protocol.

T1 sequence (P09874 whole entry): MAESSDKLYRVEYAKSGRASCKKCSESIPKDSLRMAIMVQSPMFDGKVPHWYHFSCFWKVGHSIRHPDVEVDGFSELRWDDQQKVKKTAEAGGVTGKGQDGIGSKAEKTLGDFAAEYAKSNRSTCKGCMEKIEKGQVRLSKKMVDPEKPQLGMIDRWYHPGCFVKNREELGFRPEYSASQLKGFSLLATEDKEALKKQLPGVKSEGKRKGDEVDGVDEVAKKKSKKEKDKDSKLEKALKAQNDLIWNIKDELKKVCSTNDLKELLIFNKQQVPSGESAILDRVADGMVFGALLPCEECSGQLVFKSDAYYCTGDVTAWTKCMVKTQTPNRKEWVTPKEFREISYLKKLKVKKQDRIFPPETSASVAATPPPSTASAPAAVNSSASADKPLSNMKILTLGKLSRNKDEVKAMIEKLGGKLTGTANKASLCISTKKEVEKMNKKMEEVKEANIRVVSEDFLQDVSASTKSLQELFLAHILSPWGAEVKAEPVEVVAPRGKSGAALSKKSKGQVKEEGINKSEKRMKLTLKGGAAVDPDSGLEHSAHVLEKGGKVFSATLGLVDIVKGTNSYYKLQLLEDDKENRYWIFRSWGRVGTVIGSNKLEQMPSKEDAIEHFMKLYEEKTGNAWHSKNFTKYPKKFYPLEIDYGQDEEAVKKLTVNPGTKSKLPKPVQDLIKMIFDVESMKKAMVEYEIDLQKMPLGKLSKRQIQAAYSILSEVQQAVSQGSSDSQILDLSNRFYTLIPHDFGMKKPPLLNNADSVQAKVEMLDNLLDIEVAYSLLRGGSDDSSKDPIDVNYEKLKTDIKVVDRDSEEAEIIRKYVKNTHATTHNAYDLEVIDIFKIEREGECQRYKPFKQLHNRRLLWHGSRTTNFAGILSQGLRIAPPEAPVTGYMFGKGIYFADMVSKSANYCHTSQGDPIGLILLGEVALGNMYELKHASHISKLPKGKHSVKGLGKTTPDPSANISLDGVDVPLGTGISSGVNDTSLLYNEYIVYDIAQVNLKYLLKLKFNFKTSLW

Row | IC50 | Compound
1 | 11.5 nM | O=C(c1cc(Cc2n[nH]c(=O)c3ccccc23)ccc1F)N1CC2CN(Cc3ccccc3)CC2C1 (single isomer, unassigned) [Compound 1, 4-(3-(5-benzyloctahydropyrrolo[3,4-c]pyrrole-2-carbonyl)-4-fluorobenzyl)phthalazin-1(2H)-one]
2 | 24 nM | O=C(c1cc(Cc2n[nH]c(=O)c3ccccc23)ccc1F)N1CC2CN(Cc3ccccc3)CC2C1 (single isomer, unassigned) [Compound 9, 4-(3-(5-benzyloctahydropyrrolo[3,4-c]pyrrole-2-carbonyl)-4-fluorobenzyl)phthalazin-1(2H)-one hydrochloride]
3 | 8.41 nM | O=C(c1cc(Cc2n[nH]c(=O)c3ccccc23)ccc1F)N1CC2C(=O)N(Cc3ccccc3)C(=O)C2C1 (stereo not shown) [Compound 2, 2-benzyl-5-(2-fluoro-5-((4-oxo-3,4-dihydrophthalazin-1-yl)methyl)benzoyl) tetrahydropyrrolo[3,4-c]pyrrole-1,3(2H,3aH)-dione]
4 | 14.6 nM | O=C(c1cc(Cc2n[nH]c(=O)c3ccccc23)ccc1F)N1Cc2cn[nH]c2C1 [Compound 3, 4-(4-fluoro-3-(1,4,5,6-tetrahydropyrrolo[3,4-c]pyrazole-5-carbonyl)benzyl) phthalazin-1 (2H)-one]
5 | 46.7 nM | O=C(c1cc(Cc2n[nH]c(=O)c3ccccc23)ccc1F)N1CC2CN(CC3CC3)CC2C1 (stereo not shown) [Compound 6, 4-(3-(5-(cyclopropylmethyl)octahydropyrrolo[3,4-c]pyrrole-2-carbonyl)-4-fluorobenzyl)phthalazin-1(2H)-one]
6 | 38.6 nM | O=C(c1cc(Cc2n[nH]c(=O)c3ccccc23)ccc1F)N1CC2CN(CC(F)(F)F)CC2C1 (stereo not shown) [Compound 7, 4-(4-fluoro-3-(5-(2,2,2-trifluoroethyl)octahydropyrrolo[3,4-c]pyrrole-2-carbonyl)benzyl)phthalazin-1 (2H)-one]
7 | 14.1 nM | O=C(c1cc(Cc2n[nH]c(=O)c3ccccc23)ccc1F)N1Cc2cnn(C(=O)C3CC3)c2C1 [Compound 12, 4-(3-(1-(cyclopropanecarbonyl)-1,4,5,6-tetrahydropyrrolo[3,4-c]pyrazole-5-carbonyl)-4-fluorobenzyl)phthalazin-1(2H)-one]
8 | 46.5 nM | O=C(c1cc(Cc2n[nH]c(=O)c3ccccc23)ccc1F)N1CC2COCC2C1 (stereo not shown) [Compound 14, 4-(4-fluoro-3-(hexahydro-1H-furo[3,4-c]pyrrole-5-carbonyl)benzyl)phthalazin-1 (2H)-one]
9 | 11.6 nM | O=C(c1cc(Cc2n[nH]c(=O)c3ccccc23)ccc1F)N1CC2CNCC2C1 (stereo not shown) [Compound 15, 4-(4-fluoro-3-(octahydropyrrolo[3,4-c]pyrrole-2-carbonyl)benzyl)phthalazin-1(2H)-one]
10 | 104 nM | CS(=O)(=O)N1CC2CN(C(=O)c3cc(Cc4n[nH]c(=O)c5ccccc45)ccc3F)CC2C1 (stereo not shown) [Compound 16, 4-(4-fluoro-3-(5-(methylsulfonyl)octahydropyrrolo[3,4-c]pyrrole-2-carbonyl)benzyl) phthalazin-1 (2H)-one]
11 | 34.4 nM | O=C(c1cc(Cc2n[nH]c(=O)c3ccccc23)ccc1F)N1CC2CN(Cc3ccc(F)cc3F)CC2C1 (stereo not shown) [Compound 19, 4-(3-(5-(2,4-difluorobenzyl)octahydropyrrolo[3,4-c]pyrrole-2-carbonyl)-4-fluorobenzyl)phthalazin-1(2H)-one]
12 | 22.6 nM | CN1CC2CN(C(=O)c3cc(Cc4n[nH]c(=O)c5ccccc45)ccc3F)CC2C1 (stereo not shown) [Compound 21, 4-(4-fluoro-3-(5-methyloctahydropyrrolo[3,4-c]pyrrole-2-carbonyl)benzyl)phthalazin-1(2H)-one]
13 | 20.2 nM | O=C1NC(=O)C2CN(C(=O)c3cc(Cc4n[nH]c(=O)c5ccccc45)ccc3F)CC12 (stereo not shown) [Compound 22, 5-(2-fluoro-5-((4-oxo-3,4-dihydrophthalazin-1-yl)methyl)benzoyl)tetrahydropyrrolo[3,4-c]pyrrole-1,3(2H,3aH)-dione]
14 | 67.8 nM | O=C(c1cc(Cc2n[nH]c(=O)c3ccccc23)ccc1F)N1CC2CCCC2C1 (stereo not shown) [Compound 23, 4-(4-fluoro-3-(octahydrocyclopenta[c]pyrrole-2-carbonyl)benzyl)phthalazin-1(2H)-one]
15 | 9.85 nM | O=C(c1cc(Cc2n[nH]c(=O)c3ccccc23)ccc1F)N1CC2CN(Cc3ccc(F)cc3)CC2C1 (stereo not shown) [Compound 24, 4-(4-fluoro-3-(5-(4-fluorobenzyl)octahydropyrrolo[3,4-c]pyrrole-2-carbonyl)benzyl) phthalazin-1 (2H)-one]
16 | 27.8 nM | O=C(c1cc(Cc2n[nH]c(=O)c3ccccc23)ccc1F)N1CC2CN(Cc3ccccc3F)CC2C1 (stereo not shown) [Compound 25, 4-(4-fluoro-3-(5-(2-fluorobenzyl)octahydropyrrolo[3,4-c]pyrrole-2-carbonyl)benzyl) phthalazin-1(2H)-one]
17 | 36 nM | COc1cccc(CN2CC3CN(C(=O)c4cc(Cc5n[nH]c(=O)c6ccccc56)ccc4F)CC3C2)n1 (stereo not shown) [Compound 26]

Row | IC50 | Compound
18 | 12.5 nM | CN1C(=O)C2CN(C(=O)c3cc(Cc4n[nH]c(=O)c5ccccc45)ccc3F)CC2C1=O (stereo not shown) [Compound 27, 5-(2-fluoro-5-((4-oxo-3,4-dihydrophthalazin-1-yl)methyl)benzoyl)-2-methyl tetrahydropyrrolo[3,4-c]pyrrole-1,3(2H,3aH)-dione]
19 | 18.4 nM | O=C(c1cc(Cc2n[nH]c(=O)c3ccccc23)ccc1F)N1CC2=C(C1)CS(=O)(=O)C2 [Compound 29, 4-(3-(2,2-dioxido-3,4,5,6-tetrahydro-1H-thieno[3,4-c]pyrrole-5-carbonyl)-4-fluorobenzyl)phthalazin-1(2H)-one]
20 | 9.87 nM | O=C(c1cc(Cc2n[nH]c(=O)c3ccccc23)ccc1F)N1Cc2cscc2C1 [Compound 30, 4-(3-(5,6-dihydro-4H-thieno[3,4-c]pyrrole-5-carbonyl)-4-fluorobenzyl)phthalazin-1(2H)-one]
21 | 24.2 nM | O=C(c1cc(Cc2n[nH]c(=O)c3ccccc23)ccc1F)N1CC2=C(CNC2)C1 [Compound 31, 4-(4-fluoro-3-(1,2,3,4,5,6-hexahydropyrrolo[3,4-c]pyrrole-2-carbonyl)benzyl) phthalazin-1(2H)-one]
22 | 11.5 nM | O=C(c1cc(Cc2n[nH]c(=O)c3ccccc23)ccc1F)N1CC2CN(c3ccccc3)CC2C1 (stereo not shown) [Compound 32, 4-(4-fluoro-3-(5-phenyloctahydropyrrolo[3,4-c]pyrrole-2-carbonyl)benzyl)phthalazin-1(2H)-one]
23 | 28.5 nM | CN1CC2=C(C1)CN(C(=O)c1cc(Cc3n[nH]c(=O)c4ccccc34)ccc1F)C2 [Compound 33, 4-(4-fluoro-3-(5-methyl-1,2,3,4,5,6-hexahydropyrrolo[3,4-c]pyrrole-2-carbonyl)benzyl) phthalazin-1 (2H)-one]
24 | 91 nM | O=C(c1cc(Cc2n[nH]c(=O)c3ccccc23)ccc1F)N1CC2CN(C(F)F)CC2C1 (stereo not shown) [Compound 38, 4-(3-(5-(difluoromethyl)octahydropyrrolo[3,4-c]pyrrole-2-carbonyl)-4-fluorobenzyl) phthalazin-1 (2H)-one]
25 | 54.5 nM | O=C1C[C@@H]2CN(C(=O)c3cc(Cc4n[nH]c(=O)c5ccccc45)ccc3F)C[C@@H]2C1 [Compound 39, 4-(4-fluoro-3-((3 aR,6aS)-5-oxooctahydrocyclopenta[c]pyrrole-2-carbonyl)benzyl) phthalazin-1 (2H)-one]
26 | 8.9 nM | CCn1cc2c(n1)CN(C(=O)c1cc(Cc3n[nH]c(=O)c4ccccc34)ccc1F)C2 [Compound 41, 4-(3-(2-ethyl-2,4,5,6-tetrahydropyrrolo[3,4-c]pyrazole-5-carbonyl)-4-fluorobenzyl) phthalazin-1 (2H)-one]
27 | 48.6 nM | CCn1ncc2c1CN(C(=O)c1cc(Cc3n[nH]c(=O)c4ccccc34)ccc1F)C2 [Compound 42, 4-(3-(1-ethyl-1,4,5,6-tetrahydropyrrolo[3,4-c]pyrazole-5-carbonyl)-4-fluorobenzyl) phthalazin-1 (2H)-one]
28 | 55.1 nM | CC(C)n1ncc2c1CN(C(=O)c1cc(Cc3n[nH]c(=O)c4ccccc34)ccc1F)C2 [Compound 43, 4-(4-fluoro-3-(1-isopropyl-1,4,5,6-tetrahydropyrrolo[3,4-c]pyrazole-5-carbonyl)benzyl)phthalazin-1 (2H)-one]
29 | 13.8 nM | CC(C)n1cc2c(n1)CN(C(=O)c1cc(Cc3n[nH]c(=O)c4ccccc34)ccc1F)C2 [Compound 45, 4-(4-fluoro-3-(2-isopropyl-2,4,5,6-tetrahydropyrrolo[3,4-c]pyrazole-5-carbonyl)benzyl) phthalazin-1(2H)-one]
30 | 27.8 nM | O=C(c1cc(Cc2n[nH]c(=O)c3ccccc23)ccc1F)N1C[C@@H]2CC(F)(F)C[C@@H]2C1 [Compound 46, 4-(3-((3 aR,6aS)-5,5-difluorooctahydrocyclopenta[c]pyrrole-2-carbonyl)-4-fluorobenzyl)phthalazin-1(2H)-one]
31 | 48.3 nM | COCCN1CC2CN(C(=O)c3cc(Cc4n[nH]c(=O)c5ccccc45)ccc3F)CC2C1 (stereo not shown) [Compound 47, 4-(4-fluoro-3-(5-(2-methoxyethyl)octahydropyrrolo[3,4-c]pyrrole-2-carbonyl)benzyl) phthalazin-1 (2H)-one]
32 | 74.5 nM | O=C(NC1C[C@@H]2CN(C(=O)c3cc(Cc4n[nH]c(=O)c5ccccc45)ccc3F)C[C@@H]2C1)C1CC1 (stereo partly drawn) [Compound 48, N-((3 aR,6aS)-2-(2-fluoro-5-((4-oxo-3,4-dihydrophthalazin-1-yl)methyl)benzoyl)octahydrocyclopenta[c]pyrrol-5-yl)cyclopropanecarboxamide]
33 | 15.4 nM | Cn1ncc2c1CN(C(=O)c1cc(Cc3n[nH]c(=O)c4ccccc34)ccc1F)C2 [Compound 54, 4-(4-fluoro-3-(1-methyl-1,4,5,6-tetrahydropyrrolo[3,4-c]pyrazole-5-carbonyl)benzyl) phthalazin-1 (2H)-one benzenesulfonate]
34 | 13.2 nM | CC(C)n1cc2c(n1)CN(C(=O)c1cc(Cc3n[nH]c(=O)c4ccccc34)ccc1F)C2 [Compound 55, 5-(2-fluoro-5-((4-oxo-3,4-dihydrophthalazin-1-yl)methyl)benzoyl)-2-isopropyl-2,4,5,6-tetrahydropyrrolo[3,4-c]pyrazol-2-ium hydrogensulfate]
